Results taken from US20240262814A1, “MODULATORS OF TREX1” (Constellation Pharmaceuticals, Inc., priority 2021, published 2024).

What was measured:
mouse TREX1 = target: T1, mouse TREX1 (Mus musculus, UniProt Q91XB0); assay: mTREX1 Biochemical Assay (fluorescence, dsDNA substrate degradation); settings: full length mouse TREX1, 4 h pre-incubation, 18 h reaction at 25° C.
T1 construct: N-terminally His-Tev tagged full length mouse TREX1; made in house; host or cells: E. coli
T1 sequence (Q91XB0 1-314): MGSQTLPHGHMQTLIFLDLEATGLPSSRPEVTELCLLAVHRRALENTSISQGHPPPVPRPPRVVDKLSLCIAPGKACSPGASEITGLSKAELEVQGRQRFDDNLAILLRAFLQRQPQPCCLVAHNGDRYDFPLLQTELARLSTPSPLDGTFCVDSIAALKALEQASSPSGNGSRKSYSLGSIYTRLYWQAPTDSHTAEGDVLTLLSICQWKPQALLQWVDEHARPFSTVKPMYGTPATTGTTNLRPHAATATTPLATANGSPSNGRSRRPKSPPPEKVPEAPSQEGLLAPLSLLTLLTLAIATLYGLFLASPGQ
Procedure, shortened: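 Full-length His-Tev mouse TREX1 (E. coli) was preincubated with compound 4 h at 25 °C, then run 18 h at 25 °C. Finals were 6 pM enzyme, 60 nM TEX615/quencher dsDNA, 1% DMSO, pH 7.4 Tris with 5 mM MgCl2. After EDTA quench, fluorescence was read at 615 nm; IC50 by four-parameter fit against EDTA and no-inhibitor controls.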

hTREX1 HCT116 = hTREX1 HCT116 Cell Assay (Lucia luciferase reporter, Type I interferon induction); type: cell-based; settings: Homo sapiens, HCT-116, HCT116 dual cells, 4h compound, then pBR322/BstNI DNA transfection, 48h
Source text: HCT116 dual cells (Invivogen, San Diego, CA, USA) are derived from the human HCT116 colorectal carcinoma cell line. Cells have been selected for the stable integration of SEAP and Luciferase reporter genes, which expression is under the control of 5 tandem response elements for NF-KB/AP1 and STAT1/STAT2, respectively. The cell line was used to monitor Type I interferon induction and subsequent signaling by measuring the activity of the Lucia luciferase secreted in the culture medium.
HCT116 cells were plated in 96-well plate(s) at 40,000 cells/well in 100 uL DMEM supplemented with 10% FBS and 25 mM Hepes (pH 7.2-7.5). After overnight settling, cells were treated with TREX1i for 4h (maximum DMSO fraction was 0.1%) before 1 ug/mL pBR322/BstNI restriction digest (New England Biolabs, Ipswich, MA, USA) was transfected with Lipofectamine LTX (ThermoFisher, Grand Island, NY, USA), according to product manual recommendations. Briefly, Lipofectamine LTX (0.35 uL/well) was diluted in OptiMEM (5 uL/well). pBR322/BstNI (100 ng/well) was diluted in OptiMEM (5 uL/well) before Plus reagent (0.1 uL/100 ng DNA) was added. After 5 min incubation at room temperature, the DNA mixture was mixed dropwise with the diluted Lipofectamine LTX. After an additional 10 min incubation, the transfection mix (10 uL/well) was added to the cells. Cells were maintained at 37 C for 48h before monitoring the Lucia Luciferase activity from the cell culture medium.

Structure (SMILES)	IC50 (mouse TREX1) [nM]	IC50 (hTREX1 HCT116) [nM]
CC(c1nc(C(=O)Nc2cnoc2)c(O)c(=O)n1C)C(c1cc(F)cc(F)c1)c1ccccc1C#N (single isomer, unassigned) [Example 11 Isomer 3]	< 1	–
CC(c1nc(C(=O)Nc2cnoc2)c(O)c(=O)n1C)C(c1ccccc1)c1cc(F)ccc1C#N (single isomer, unassigned) [Example 6 Isomer 4]	1 to 10	–
CC(c1nc(C(=O)Nc2cnoc2)c(O)c(=O)n1C)C(c1ccccc1)c1ccccc1C#N (single isomer, unassigned) [Example 3 Isomer 4]	1 to 10	–
C[C@H](c1nc(C(=O)Nc2cnoc2)c(O)c(=O)n1C)C(c1ccccc1Cl)c1ccccc1Cl (single isomer, unassigned) [Example 15 Isomer 1, 2-(1,1-bis(2-chlorophenyl)propan-2-yl)-5-hydroxy-N-(isooxazol-4-yl)-1-methyl-6-oxo-1,6-dihydropyrimidine-4-carboxamide]	< 1	10 to 100
Cn1c([C@@H](C(c2ccccc2C#N)c2ccccc2C#N)C(F)(F)F)nc(C(=O)Nc2cnoc2)c(O)c1=O (single isomer, unassigned) [Example 21 Isomer 1, 2-(3,3-bis(2-cyanophenyl)-1,1,1-trifluoropropan-2-yl)-5-hydroxy-N-(isoxazol-4-yl)-1-methyl-6-oxo-1,6-dihydropyrimidine-4-carboxamide]	1 to 10	< 10
CC(c1nc(C(=O)Nc2cnoc2)c(O)c(=O)n1C)C(c1ccccc1)c1cc(C(=O)N(C)C)ccc1C#N (single isomer, unassigned) [Example 17 Isomer 3]	1 to 10	10 to 100
CC(c1nc(C(=O)Nc2cnoc2)c(O)c(=O)n1C)C(c1ccccc1)c1ccccc1 (single isomer, unassigned) [Example 1 Isomer 2, 2-(1,1-diphenylpropan-2-yl)-5-hydroxy-N-(isoxazol-4-yl)-1-methyl-6-oxo-1,6-dihydro pyrimidine-4-carboxamide]	> 10	–
C[C@H](c1nc(C(=O)Nc2cnoc2)c(O)c(=O)n1C)[C@H](c1ccccc1)c1ccccc1C(F)(F)F (single isomer, unassigned) [Example 14 Isomer 2, 5-Hydroxy-N-(isoxazol-4-yl)-1-methyl-6-oxo-2-(1-phenyl-1-(2-(trifluoromethyl)phenyl)propan-2-yl)-1,6-dihydropyrimidine-4-carboxamide]	> 10	> 100
Cn1c([C@H](C(c2ccccc2)c2ccccc2)C(F)(F)F)nc(C(=O)Nc2cnoc2)c(O)c1=O (single isomer, unassigned) [Example 20 Isomer 1, 5-Hydroxy-N-(isoxazol-4-yl)-1-methyl-6-oxo-2-(1,1,1-trifluoro-3,3-diphenylpropan-2-yl)-1,6-dihydropyrimidine-4-carboxamide]	> 10	> 100
CC(c1nc(C(=O)Nc2cnoc2)c(O)c(=O)n1C)C(c1ccccc1)c1ccccc1 (single isomer, unassigned) [Example 1 Isomer 1, 2-(1,1-diphenylpropan-2-yl)-5-hydroxy-N-(isoxazol-4-yl)-1-methyl-6-oxo-1,6-dihydro pyrimidine-4-carboxamide]	> 10	> 100

Continued, values first:

IC50 (mouse TREX1) [nM]	IC50 (hTREX1 HCT116) [nM]	Structure (SMILES)
< 1	< 10	CC(c1nc(C(=O)Nc2cnoc2)c(O)c(=O)n1C)C(c1ccccc1C#N)c1ccccc1C#N (single isomer, unassigned) [Example 4 Isomer 2]
1 to 10	–	CC(c1nc(C(=O)Nc2cnoc2)c(O)c(=O)n1C)C(c1ccccc1)c1cc(Cl)ccc1C#N (single isomer, unassigned) [Example 8 Isomer 2]
1 to 10	–	C[C@H](c1nc(C(=O)Nc2cnoc2)c(O)c(=O)n1C)[C@H](c1ccccc1)c1ccccc1Cl (single isomer, unassigned) [Example 2 Isomer 3, 2-(1-(2-chlorophenyl)-1-phenylpropan-2-yl)-5-hydroxy-N-(isoxazol-4-yl)-1-methyl-6-oxo-1,6-dihydropyrimidine-4-carboxamide]
< 1	–	CC(c1nc(C(=O)Nc2cnoc2)c(O)c(=O)n1C)C(c1ccccc1Cl)c1ccccc1C#N (single isomer, unassigned) [Example 10 Isomer 1]
< 1	–	CC(c1nc(C(=O)Nc2cnoc2)c(O)c(=O)n1C)C(c1ccccc1)c1ccc(Cl)cc1C#N (single isomer, unassigned) [Example 9 Isomer 4]
